# Patent US11512069B2, “TLR7/8 antagonists and uses thereof” (Merck Patent GmbH, priority 2016, dated 2022)
# Biological target: T1, TLR7 (Homo sapiens, UniProt Q9NYK1)
# T1 construct: expressed in transfected cells; host or cells: HEK cells carrying TLR7 and an NF-kB reporter read with Steady-Glo
# T1 sequence (Q9NYK1 27-1049): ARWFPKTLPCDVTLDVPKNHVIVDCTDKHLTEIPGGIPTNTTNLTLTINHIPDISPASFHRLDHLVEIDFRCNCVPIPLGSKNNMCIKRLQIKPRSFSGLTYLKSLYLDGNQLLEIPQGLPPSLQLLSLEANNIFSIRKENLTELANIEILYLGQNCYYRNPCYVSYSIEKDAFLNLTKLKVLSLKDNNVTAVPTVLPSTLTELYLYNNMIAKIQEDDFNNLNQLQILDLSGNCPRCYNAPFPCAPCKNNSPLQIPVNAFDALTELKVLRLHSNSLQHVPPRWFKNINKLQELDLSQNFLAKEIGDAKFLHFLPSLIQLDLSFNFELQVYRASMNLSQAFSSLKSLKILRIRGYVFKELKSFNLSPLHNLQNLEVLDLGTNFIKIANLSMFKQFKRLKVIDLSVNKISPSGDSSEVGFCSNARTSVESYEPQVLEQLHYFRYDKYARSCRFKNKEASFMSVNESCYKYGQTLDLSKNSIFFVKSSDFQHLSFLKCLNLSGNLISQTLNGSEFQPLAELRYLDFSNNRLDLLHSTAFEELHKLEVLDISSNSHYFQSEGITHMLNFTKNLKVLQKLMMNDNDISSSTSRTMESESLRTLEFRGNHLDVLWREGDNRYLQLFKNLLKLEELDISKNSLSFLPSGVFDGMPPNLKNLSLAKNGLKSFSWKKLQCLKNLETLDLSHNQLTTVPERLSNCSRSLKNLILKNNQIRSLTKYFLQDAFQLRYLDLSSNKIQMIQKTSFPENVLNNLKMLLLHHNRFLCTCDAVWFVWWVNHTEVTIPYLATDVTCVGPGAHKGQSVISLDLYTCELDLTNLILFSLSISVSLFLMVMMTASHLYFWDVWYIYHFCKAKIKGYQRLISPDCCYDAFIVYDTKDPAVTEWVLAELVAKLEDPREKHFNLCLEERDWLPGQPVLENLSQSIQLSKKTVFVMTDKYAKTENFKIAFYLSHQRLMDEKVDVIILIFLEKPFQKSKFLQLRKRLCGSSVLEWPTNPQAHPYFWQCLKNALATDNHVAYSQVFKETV
# Assay: HEK Cell Assay (TLR7/NFKb HEK reporter cells, Steady-Glo)
# Type: cell-based
# Conditions: compound 30 min, then R*48 agonist 5 hours, Steady-Glo readout, read-out: Potency
# How it was run: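 TLR7/NF-κB HEK reporter cells cultured 24 h, then pre-incubated 30 min with compound before adding R*48 agonist. Luciferase read by Steady-Glo luminescence after 5 h.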
row,Compound,IC50 [nM]
1,"C[C@@H]1C[C@H](c2ccc(OC(F)(F)F)c3ncccc23)CN(C(=O)NC2CCN(C)CC2)C1 [Compound 112, (3R,5R)-3-Methyl-5-(8-trifluoromethoxy-quinolin-5-yl)-piperidine-1-carboxylic acid (1-methyl-piperidin-4-yl)-amide]",< 1000
2,"C[C@@H]1C[C@H](c2ccc(C#N)c3ncccc23)CN(C(=O)NC2CCN(C)CC2)C1 [Compound 113, (3R,5R)-3-(8-Cyano-quinolin-5-yl)-5-methyl-piperidine-1-carboxylic acid (1-methyl-piperidin-4-yl)-amid]",< 1000
3,"C[C@@H]1C[C@@H](c2cccc3ncccc23)CN(C(=O)NC2CCN(C)CC2)C1 [Compound 114, (3R,5S)-3-Methyl-5-quinolin-5-yl-piperidine-1-carboxylic acid (1-methyl-piperidin-4-yl)-amide]",1000 to 20000
4,"C[C@@H]1C[C@H](c2cccc3ncccc23)CN(C(=O)NC2CCN(C)CC2)C1 [Compound 115, (3R,5R)-3-Methyl-5-quinolin-5-yl-piperidine-1-carboxylic acid (1-methyl-piperidin-4-yl)-amide]",1000 to 20000
5,"C[C@@H]1C[C@H](c2ccc(C#N)c3ncccc23)CN(C(=O)CN2CCC3(CC2)CNC3)C1 [Compound 117, 5-[(3R,5R)-1-(2-2,7-Diaza-spiro[3.5]non-7-yl-acetyl)-5-methyl-piperidin-3-yl]-quinoline-8-carbonitrile]",1000 to 20000
6,"C[C@@H]1C[C@H](c2ccc(C#N)c3ncccc23)CN(C(N)=O)C1 [Compound 118, (3R,5R)-3-(8-Cyano-quinolin-5-yl)-5-methyl-piperidine-1-carboxylic acid amide]",1000 to 20000
7,"C[C@@H]1C[C@H](c2ccc(C#N)c3ncccc23)CN(C(=N)N)C1 [Compound 119, (3R,5R)-3-(8-Cyano-quinolin-5-yl)-5-methyl-piperidine-1-carboxamidine]",1000 to 20000
8,"C[C@H]1C[C@@H](N)C[C@@H](c2ccc(C#N)c3nccnc23)C1 [Compound 121, 8-[(1S,3R,5R)-3-amino-5-methylcyclohexyl]quinoxaline-5-carbonitrile]",< 1000
9,"C[C@@H]1C[C@H](N)C[C@H](c2ccc(C#N)c3nccnc23)C1 [Compound 122, 8-((1R,3S,5S)-3-amino-5-methylcyclohexyl)quinoxaline-5-carbonitrile]",1000 to 20000
10,"C[C@H]1C[C@@H](N)C[C@H](c2ccc(C#N)c3nccnc23)C1 [Compound 123, 8-[(1R,3R,5R)-3-amino-5-methylcyclohexyl]quinoxaline-5-carbonitrile]",< 1000
11,"C[C@@H]1C[C@H](N)C[C@@H](c2ccc(C#N)c3nccnc23)C1 [Compound 124, 8-((1S,3S,5S)-3-amino-5-methylcyclohexyl)quinoxaline-5-carbonitrile]",> 20000
12,"CC(C)[C@H](O)C(=O)N[C@@H]1C[C@H](C)C[C@H](c2ccc(C#N)c3nccnc23)C1 [Compound 125, (S)—N-((1R,3S,5R)-3-(8-cyanoquinoxalin-5-yl)-5-methylcyclohexyl)-2-hydroxy-3-methylbutanamide]",< 1000
13,"CC(C)[C@H](O)C(=O)N[C@H]1C[C@@H](C)C[C@@H](c2ccc(C#N)c3nccnc23)C1 [Compound 126, (S)—N-((1S,3R,5S)-3-(8-cyanoquinoxalin-5-yl)-5-methylcyclohexyl)-2-hydroxy-3-methylbutanamide]",1000 to 20000
14,"CC(C)[C@H](O)C(=O)N[C@@H]1C[C@H](C)C[C@@H](c2ccc(C#N)c3nccnc23)C1 [Compound 127, (S)—N-((1R,3R,5R)-3-(8-cyanoquinoxalin-5-yl)-5-methylcyclohexyl)-2-hydroxy-3-methylbutanamide]",> 20000
15,"CC(C)[C@H](O)C(=O)N[C@H]1C[C@@H](C)C[C@H](c2ccc(C#N)c3nccnc23)C1 [Compound 128, (S)—N-((1S,3S,5S)-3-(8-cyanoquinoxalin-5-yl)-5-methylcyclohexyl)-2-hydroxy-3-methylbutanamide]",1000 to 20000
16,"C[C@H]1C[C@@H](N)C[C@@H](c2ccc(C(F)(F)F)c3ncccc23)C1 [Compound 135, (1R,3R,5S)-3-methyl-5-(8-(trifluoromethyl)quinolin-5-yl)cyclohexanamine]",1000 to 20000

row,Compound,IC50 [nM]
1,"C[C@@H]1C[C@H](N)C[C@H](c2ccc(C(F)(F)F)c3ncccc23)C1 [Compound 136, (1S,3S,5R)-3-methyl-5-(8-(trifluoromethyl)quinolin-5-yl)cyclohexanamine]",< 1000
2,"C[C@H]1C[C@@H](N)C[C@H](c2ccc(C(F)(F)F)c3ncccc23)C1 [Compound 137, (1R,3R,5R)-3-methyl-5-(8-(trifluoromethyl)quinolin-5-yl)cyclohexanamine]",1000 to 20000
3,"C[C@@H]1C[C@H](N)C[C@@H](c2ccc(C(F)(F)F)c3ncccc23)C1 [Compound 138, (1S,3S,5S)-3-methyl-5-(8-(trifluoromethyl)quinolin-5-yl)cyclohexanamine]",< 1000
4,"C[C@H]1C[C@@H](N)C[C@@H](c2ccc(C(F)(F)F)c3nccnc23)C1 [Compound 139, (1R,3R,5S)-3-methyl-5-(8-(trifluoromethyl)quinoxalin-5-yl)cyclohexanamine]",< 1000
5,"C[C@H]1C[C@@H](N)C[C@H](c2ccc(C(F)(F)F)c3nccnc23)C1 [Compound 140, (1R,3R,5R)-3-methyl-5-(8-(trifluoromethyl)quinoxalin-5-yl)cyclohexanamine]",1000 to 20000
6,"C[C@@H]1C[C@H](N)C[C@@H](c2ccc(C(F)(F)F)c3nccnc23)C1 [Compound 141, (1S,3S,5S)-3-methyl-5-(8-(trifluoromethyl)quinoxalin-5-yl)cyclohexanamine]",< 1000
7,"C[C@@H]1C[C@H](N)C[C@H](c2ccc(C(F)(F)F)c3nccnc23)C1 [Compound 142, (1S,3S,5R)-3-methyl-5-(8-(trifluoromethyl)quinoxalin-5-yl)cyclohexanamine]",< 1000
8,"COCCN[C@@H]1C[C@H](C)C[C@H](c2ccc(C(F)(F)F)c3nccnc23)C1 [Compound 147, (1R,3R,5S)—N-(2-methoxyethyl)-3-methyl-5-(8-(trifluoromethyl)quinoxalin-5-yl)cyclohexanamine]",> 20000
9,"COCCN[C@H]1C[C@@H](C)C[C@@H](c2ccc(C(F)(F)F)c3nccnc23)C1 [Compound 148, (1S,3S,5R)—N-(2-methoxyethyl)-3-methyl-5-(8-(trifluoromethyl)quinoxalin-5-yl)cyclohexanamine]",1000 to 20000
10,"COCCN[C@@H]1C[C@H](C)C[C@@H](c2ccc(C(F)(F)F)c3nccnc23)C1 [Compound 149, (1R,3R,5R)—N-(2-methoxyethyl)-3-methyl-5-(8-(trifluoromethyl)quinoxalin-5-yl)cyclohexanamine]",1000 to 20000
11,"COCCN[C@H]1C[C@@H](C)C[C@H](c2ccc(C(F)(F)F)c3nccnc23)C1 [Compound 150, (1S,3S,5S)—N-(2-methoxyethyl)-3-methyl-5-(8-(trifluoromethyl)quinoxalin-5-yl)cyclohexanamine]",> 20000
12,"COCCN[C@@H]1C[C@H](C)C[C@H](c2ccc(C(F)(F)F)c3ncccc23)C1 [Compound 152, (1R,3R,5S)—N-(2-methoxyethyl)-3-methyl-5-(8-(trifluoromethyl)quinolin-5-yl)cyclohexanamine]",> 20000
13,"COCCN[C@H]1C[C@@H](C)C[C@@H](c2ccc(C(F)(F)F)c3ncccc23)C1 [Compound 153, (1S,3S,5R)—N-(2-methoxyethyl)-3-methyl-5-(8-(trifluoromethyl)quinolin-5-yl)cyclohexanamine]",1000 to 20000
14,"C[C@H]1C[C@@H](NC(=O)[C@@H](O)C(C)(C)C)C[C@@H](c2ccc(C(F)(F)F)c3nccnc23)C1 [Compound 154, (S)-2-hydroxy-3,3-dimethyl-N-((1R,3R,5S)-3-methyl-5-(8-(trifluoromethyl)quinoxalin-5-yl)cyclohexyl)butanamide]",< 1000
15,"C[C@@H]1C[C@H](NC(=O)[C@@H](O)C(C)(C)C)C[C@H](c2ccc(C(F)(F)F)c3nccnc23)C1 [Compound 155, (S)-2-hydroxy-3,3-dimethyl-N-((1S,3S,5R)-3-methyl-5-(8-(trifluoromethyl)quinoxalin-5-yl)cyclohexyl)butanamide]",1000 to 20000
16,"COCCN[C@@H]1C[C@H](C)C[C@H](c2ccc(F)c3ncccc23)C1 [Compound 160, (cis-1,3,5)-3-(8-fluoroquinolin-5-yl)-N-(2-methoxyethyl)-5-methylcyclohexan-1-amine]",> 20000
